Experimental data from patent US8791132B2, “Compounds and methods for treatment of hypertension” (Medivation Technologies, Inc., priority 2011, dated 2014).

How the values were obtained:
[1] = target: T1, human recombinant adrenergic α2B receptor (Homo sapiens, UniProt P18089); assay: Radioligand binding, adrenergic α2B ([3H]Rauwolscine); conditions: for inhibition at 0.1 µM: 0.1 μM compound, read-out: Percentage inhibition of ligand binding, Adrenergic α2B
T1 construct: expressed in transfected cells; host or cells: CHO-K1
T1 sequence (P18089 1-450): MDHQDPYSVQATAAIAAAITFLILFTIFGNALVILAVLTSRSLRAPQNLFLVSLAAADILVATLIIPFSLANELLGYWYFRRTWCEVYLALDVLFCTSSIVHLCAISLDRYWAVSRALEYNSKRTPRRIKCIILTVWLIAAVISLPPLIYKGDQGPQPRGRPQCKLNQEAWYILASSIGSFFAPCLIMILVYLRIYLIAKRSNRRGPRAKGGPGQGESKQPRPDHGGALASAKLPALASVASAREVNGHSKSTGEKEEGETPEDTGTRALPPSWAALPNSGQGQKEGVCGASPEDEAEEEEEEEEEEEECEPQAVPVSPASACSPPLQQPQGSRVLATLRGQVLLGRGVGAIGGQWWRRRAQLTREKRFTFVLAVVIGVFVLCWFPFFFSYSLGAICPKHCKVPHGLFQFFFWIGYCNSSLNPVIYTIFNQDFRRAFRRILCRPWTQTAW
Summary of the method: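 Receptor expressed in CHO-K1 cells, assayed in 50 mM Tris-HCl pH 7.4 with 12.5 mM MgCl2, 1 mM EDTA and 0.2% BSA. Compounds were incubated with 2.5 nM [3H]Rauwolscine for 60 min at 25° C; 10 μM Prazosin defined non-specific binding. Filter counting gave percent inhibition of specific binding.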

[2] = target: T2, human recombinant adrenergic α2A receptor (Homo sapiens, UniProt P08913); assay: Radioligand binding, adrenergic α2A ([3H]MK-912)
T2 construct: expressed in transfected cells; host or cells: insect Sf9 cells
T2 sequence (P08913 1-465): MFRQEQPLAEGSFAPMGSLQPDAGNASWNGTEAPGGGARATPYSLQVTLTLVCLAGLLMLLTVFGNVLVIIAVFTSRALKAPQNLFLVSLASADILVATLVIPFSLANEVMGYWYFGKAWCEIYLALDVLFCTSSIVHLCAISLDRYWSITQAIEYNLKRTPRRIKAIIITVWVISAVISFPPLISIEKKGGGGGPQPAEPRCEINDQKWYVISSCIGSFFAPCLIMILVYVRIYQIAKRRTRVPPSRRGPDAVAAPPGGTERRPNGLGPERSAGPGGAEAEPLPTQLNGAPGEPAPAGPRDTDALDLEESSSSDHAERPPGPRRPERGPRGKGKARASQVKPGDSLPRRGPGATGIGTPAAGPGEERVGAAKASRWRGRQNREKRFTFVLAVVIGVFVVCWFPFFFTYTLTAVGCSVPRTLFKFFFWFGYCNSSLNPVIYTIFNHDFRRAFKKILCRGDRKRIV
Summary of the method: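 Displacement of 1 nM [3H]MK-912 from receptor produced in insect Sf9 cells was measured after 60 min at 25 °C. Readout: percent inhibition of specific binding.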

[3] = target: T3, rat adrenergic α1B receptor (Rattus norvegicus, UniProt P15823); assay: Radioligand binding, adrenergic α1B ([3H]Prazosin); conditions: 0.1 μM compound; read-out: Percentage inhibition of ligand binding, Adrenergic α1B
T3 construct: rat adrenergic α1B receptor obtained from Wistar Rat liver; from tissue; host or cells: Wistar rat liver
T3 sequence (P15823 1-515): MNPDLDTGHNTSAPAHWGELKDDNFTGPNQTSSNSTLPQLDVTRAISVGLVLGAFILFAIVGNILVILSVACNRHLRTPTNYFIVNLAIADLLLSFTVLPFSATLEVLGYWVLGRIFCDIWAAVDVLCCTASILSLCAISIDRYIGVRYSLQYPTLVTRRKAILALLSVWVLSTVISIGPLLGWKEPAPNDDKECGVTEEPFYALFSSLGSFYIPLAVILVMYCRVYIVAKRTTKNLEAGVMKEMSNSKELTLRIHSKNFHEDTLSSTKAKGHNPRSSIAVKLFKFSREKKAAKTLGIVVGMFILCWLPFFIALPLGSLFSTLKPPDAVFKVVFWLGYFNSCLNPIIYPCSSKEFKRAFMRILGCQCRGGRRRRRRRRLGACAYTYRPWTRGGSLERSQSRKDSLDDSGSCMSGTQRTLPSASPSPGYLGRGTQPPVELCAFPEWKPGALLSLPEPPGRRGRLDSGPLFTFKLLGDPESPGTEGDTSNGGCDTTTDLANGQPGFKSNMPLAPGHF
Summary of the method: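 Specific binding, taken as total minus that remaining with 10 μM phentolamine, is measured after filtration and counting. Rat liver receptor preparation and 0.25 nM [3H]prazosin are incubated with compound in 50 mM Tris-HCl (pH 7.4, 0.5 mM EDTA) at 25° C for 60 min. Activity is reported as percent inhibition.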

[4] = target: T4, human recombinant adrenergic α1D receptor (Homo sapiens, UniProt P25100); assay: Radioligand binding, adrenergic α1D ([3H]Prazosin); conditions: 0.1 μM compound; read-out: Percentage inhibition of ligand binding, Adrenergic α1D
T4 construct: expressed in transfected cells; host or cells: HEK-293
T4 sequence (P25100 1-572): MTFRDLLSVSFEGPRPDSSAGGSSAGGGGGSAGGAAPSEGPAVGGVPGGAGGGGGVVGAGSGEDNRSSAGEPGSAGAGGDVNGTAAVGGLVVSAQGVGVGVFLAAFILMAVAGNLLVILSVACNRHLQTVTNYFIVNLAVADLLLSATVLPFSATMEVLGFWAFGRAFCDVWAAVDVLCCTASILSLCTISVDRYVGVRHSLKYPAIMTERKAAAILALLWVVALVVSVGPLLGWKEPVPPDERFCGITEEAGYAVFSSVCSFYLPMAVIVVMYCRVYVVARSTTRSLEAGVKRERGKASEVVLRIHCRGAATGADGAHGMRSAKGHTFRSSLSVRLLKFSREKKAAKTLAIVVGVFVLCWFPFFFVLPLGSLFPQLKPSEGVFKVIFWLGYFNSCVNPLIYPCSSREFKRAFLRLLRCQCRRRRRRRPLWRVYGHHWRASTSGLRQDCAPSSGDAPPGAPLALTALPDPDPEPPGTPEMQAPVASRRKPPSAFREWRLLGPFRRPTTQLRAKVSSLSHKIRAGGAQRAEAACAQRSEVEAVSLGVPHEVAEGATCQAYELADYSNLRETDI
Description: Compounds were incubated with 0.6 nM [3H]Prazosin for 60 min at 25° C. Non-specific binding was estimated in the presence of 10 μM phentolamine. Receptor proteins were filtered and washed, the filters were then counted to determine [3H]Prazosin specifically bound. […] Biochemical assay results are presented as the percent inhibition of specific binding in Table B1.

[5] = 0.1 μM compound, read-out: Percentage inhibition of ligand binding, Adrenergic α2A

Row | inhibition at 0.1 µM [1] [%] | inhibition at 0.1 µM [2, 5] [%] | inhibition at 0.1 µM [3] [%] | inhibition at 0.1 µM [4] [%] | Ki ([1]; read-out: Ki α2B) [nM] | Ki [2] [nM] | inhibition at 0.03 µM ([2]; 0.03 μM compound, read-out: Percentage inhibition of ligand binding, Adrenergic α2A) [%] | Percentage inhibition of ligand binding, Adrenergic α2A ([2]; 0.1 μM compound, 0.1 µM) [%] | Structure (SMILES)
1 | 90 | 59 | 94 | 66 | – | – | – | – | Cc1ccc2c(c1)c1c(n2C#Cc2cnc3ccccc3c2)CCN(C)C1 [compound 321, 2,8-dimethyl-5-quinolin-3-ylethynyl-2,3,4,5-tetrahydro-1H-pyrido[4,3-b]indole]
2 | 49 | 58 | 59 | 22 | – | – | – | – | Cc1ccc(CCn2c3c(c4cc(Cl)c(Cl)cc42)CN(C)CC3)cn1 [compound 322]
3 | 95 | 92 | 85 | 69 | – | – | – | – | Cc1ccc2c(c1)c1c(n2/C=C/c2cnc3ccccc3c2)CCN(C)C1 [compound 323]
4 | 99 | 67 | 63 | 31 | – | – | – | – | Cc1ccc2c(c1)c1c(n2CNc2ccccc2)CCN(C)C1 [compound 324, (2,8-dimethyl-1,2,3,4-tetrahydro-pyrido[4,3-b]indol-5-ylmethyl)-phenyl-amine]
5 | -6 | 81 | -1 | 1 | 206 | 9.88 | 53 | 84 | Cc1ccc(CCn2c3c(c4c(Cl)ccc(Cl)c42)CN(C)CC3)cn1 [compound 325]
6 | 93 | 51 | 33 | 35 | – | – | – | – | Cc1ccc2c(c1)c1c(n2CCc2nc(-c3ccc(Cl)cc3)cs2)CCN(C)C1 [compound 326]
7 | -4 | 58 | -5 | 4 | – | – | – | – | Cc1cc(-c2sccc2C)c2c(c1)c1c(n2CCc2ccc(C)nc2)CCN(C)C1 [compound 327]
8 | 93 | 76 | 95 | 80 | – | – | – | – | Cc1ccc(C#Cn2c3c(c4cc(C)ccc42)CN(C)CC3)nc1 [compound 328, 2,8-dimethyl-5-(5-methyl-pyridin-2-ylethynyl)-2,3,4,5-tetrahydro-1H-pyrido[4,3-b]indole]
9 | 104 | 60 | 68 | 78 | – | – | – | – | CCCc1ccc(/C(C)=C/n2c3c(c4cc(C)ccc42)CN(C)CC3)cn1 [compound 329]
10 | 99 | 58 | 98 | 72 | – | – | – | – | Cc1ccc2c(c1)c1c(n2C#Cc2ccc(S(N)(=O)=O)cc2)CCN(C)C1 [compound 330, 4-(2,8-dimethyl-1,2,3,4-tetrahydro-pyrido[4,3-b]indol-5-ylethynyl)-benzenesulfonamide]
11 | 99 | 53 | 53 | 70 | – | – | – | – | C/C(=C\n1c2c(c3cc(C)ccc31)CN(C)CC2)c1ccc(C(F)(F)F)nc1 [compound 331]
12 | 86 | 94 | 41 | 51 | – | – | – | – | Cc1ccc2c(c1)c1c(n2CCc2ccc3c(c2)CCCC3)CCN(C)C1 [compound 332, 2,8-dimethyl-5-[2-(5,6,7,8-tetrahydro-naphthalen-2-yl)-ethyl]-2,3,4,5-tetrahydro-1H-pyrido[4,3-b]indole]
13 | 88 | 52 | 65 | 16 | – | – | – | – | Cc1ccc2c(c1)c1c(n2C#Cc2ccc(S(N)(=O)=O)cc2)CN(C)CC1 [compound 333, 4-(2,6-dimethyl-1,2,3,4-tetrahydro-β-carbolin-9-ylethynyl)-benzenesulfonamide]
14 | 82 | 55 | 91 | 72 | – | – | – | – | Cc1ccc2c(c1)c1c(n2C#Cc2ccc(S(N)(=O)=O)s2)CCN(C)C1 [compound 334, 5-(2,8-dimethyl-1,2,3,4-tetrahydro-pyrido[4,3-b]indol-5-ylethynyl)-thiophene-2-sulfonic acid amide]
15 | 99 | 60 | 82 | 73 | – | – | – | – | C/C(=C\n1c2c(c3cc(C)cnc31)CN(C)CC2)c1ccc(F)cc1 [compound 335, 9-[2-(4-fluoro-phenyl)-propenyl]-3,6-dimethyl-6,7,8,9-tetrahydro-5H-1,6,9-triaza-fluorene]
